According to PubChem BioAssay AID540252 (Sanford-Burnham Center for Chemical Genomics, 2011):
Activity calls are given as the source filed them. The rule behind the calls is not given here.

What follows are molecules tested against glucose-6-phosphate dehydrogenase-6-phosphogluconolactonase (Plasmodium falciparum 3D7) (assay: PfG6PD enzyme inhibitors, direct NADPH readout, dose response, orthogonal assay, biochemical, end-point NADPH detection (AID 540252)). Settings: purified PfG6PD enzyme.
With `COc1ccc(CN(C)S(=O)(=O)c2nnc(NC(=O)c3ccc(C)cc3)s2)cc1OC` the IC50 was > 80 µM (inactive).
With `O=C(Nc1ccccn1)c1sc2cc([N+](=O)[O-])ccc2c1Cl` the IC50 was > 80 µM (inactive).
For `Cc1ccc(-c2c(C(=O)N/N=C/c3ccsc3)nnn2-c2nonc2N)cc1`, the IC50 was > 80 µM (inactive).
`CCCCCCCCn1sccc1=O` was tested, and the IC50 was 46 µM.
For `COc1cccc(-c2c(C(=O)N/N=C/c3ccc(C)s3)nnn2-c2nonc2N)c1`, the IC50 was > 80 µM (inactive).
`Cc1ccc(-n2c(N)c(C(=O)N3CCN(C)CC3)sc2=S)cc1` showed an IC50 of 55.2 µM.
`CCN1CCCC1CNC(=O)c1ccc2c(c1)NC(=O)/C(=C\c1ccccc1Cl)S2` (stereo not drawn) was tested, and the IC50 was > 80 µM (inactive).
In the case of `CCOC(=O)C1CCCN(C(=O)Cn2sc3nc(C)cc(C)c3c2=O)C1` (stereo not drawn), the IC50 is reported as > 80 µM (inactive).
With `COc1cc(N(C)C)ccc1C=c1c2ccccc2n2c1cc(-c1ccccc1)[n+]2C` the IC50 was > 80 µM (inactive).
With `COc1cc(NC(C)CCc2ccccc2)cc(OC)c1OC` (stereo not drawn) the IC50 was > 80 µM (inactive).
`C[C@H](NC(=O)c1cc2c(cn1)[nH]c1ccccc12)C(=O)O` was tested, and the IC50 was > 80 µM (inactive).
`COc1cccc(C(=O)Nc2nnc(C(C)C)s2)c1` was tested, and the IC50 was > 80 µM (inactive).
In the case of `O=S(=O)(Nc1cc(Sc2cccc3cccnc23)c(O)c2ccccc12)c1ccc(F)cc1`, the IC50 is reported as > 80 µM (inactive).
With `Cc1ccc(S(=O)(=O)N(C(=O)c2ccncc2)c2ccc(OC(=O)c3ccncc3)c3ccccc23)cc1` the IC50 was > 80 µM (inactive).
With `Cc1nnc(SCC(=O)c2cc(C)n(-c3ccc4c(c3)OCO4)c2C)s1` the IC50 was > 80 µM (inactive).
With `Cc1nc2c(o1)C(=O)c1ccccc1C2=Nc1ccccc1` the IC50 was > 80 µM (inactive).
In the case of `CCOC(=O)Cc1csc(-n2sc3ccccc3c2=O)n1`, the IC50 is reported as > 80 µM (inactive).
For `COc1cccc2nc3cc(C)c(C)cc3nc12`, the IC50 was > 80 µM (inactive).
With `CCOC(=O)c1cnc2ccc(C)cc2c1Sc1ccccc1C(=O)OC` the IC50 was > 80 µM (inactive).
In the case of `COc1ccc(NC2CCCN(Cc3cccc4cnccc34)C2)cc1OC` (stereo not drawn), the IC50 is reported as > 80 µM (inactive).
With `O=C(CCc1ccc(S(=O)(=O)N2CCOCC2)cc1)N/N=C/c1ccc(O)c(O)c1O` the IC50 was > 80 µM (inactive).
In the case of `CC1=CC(C)(C)Nc2ccc(OC(=O)CN3C(=O)c4cccc5cccc(c45)C3=O)cc21`, the IC50 is reported as > 80 µM (inactive).
For `Nc1ccc2c3c(cccc13)-c1ccccc1-2`, the IC50 was > 80 µM (inactive).
`Cc1nn(-c2ccccc2)c(Cl)c1/C=N/Nc1nc2ccccc2n1C` was tested, and the IC50 was > 80 µM (inactive).
In the case of `CC1=C(O)C(=O)C=C2C1=CC=C1C2(C)CCC2(C)C3CC(C)(C(=O)O)CCC3(C)CCC12C` (stereo not drawn), the IC50 is reported as > 80 µM (inactive).
In the case of `Oc1ccc(-c2cn3c(n2)SCC3)cc1O`, the IC50 is reported as > 80 µM (inactive).
For `Cc1ccc(S(=O)(=O)Oc2cccc(/C=N/Nc3ccc(C(=O)O)cc3)c2)cc1`, the IC50 was > 80 µM (inactive).
For `Cc1ccc(/C=C/C(=O)NCc2ccc(S(N)(=O)=O)cc2)o1`, the IC50 was > 80 µM (inactive).
Work on `O=c1c2ccccc2sn1-c1ccccc1` yielded an IC50 of 7.9 µM.
For `COc1cc(Sc2ccc(C)cc2)c(OC)cc1N`, the IC50 was > 80 µM (inactive).
`CCOc1ccc(CNc2ccc(N3CCCC3)cc2)cc1` was tested, and the IC50 was > 80 µM (inactive).
In the case of `O=S(=O)(Nc1c(O)ccc2ccccc12)c1ccccc1`, the IC50 is reported as > 80 µM (inactive).
`O=c1c2ccc(F)cc2sn1-c1ccccc1` was tested, and the IC50 was 14.5 µM.
`COc1cc(CNc2ccc(N3CCCC3)cc2)cc(Cl)c1OC` was tested, and the IC50 was > 80 µM (inactive).
`COc1cc(-c2cc(=O)c3c(O)c(OC)c(OC)c(O)c3o2)ccc1O` was tested, and the IC50 was > 80 µM (inactive).
In the case of `CC(=O)Nc1ccc(S(=O)(=O)/N=C2\C(=O)c3ccccc3C([O-])=C2n2cc[n+](-c3ccccn3)c2)cc1`, the IC50 is reported as > 80 µM (inactive).
With `CC(SCC(=O)Nc1ccccc1)c1nc2ccccc2c(=O)[nH]1` (stereo not drawn) the IC50 was > 80 µM (inactive).
For `O=c1[nH]c2ccc(NCc3ccccc3OCc3ccc(Cl)cc3)cc2[nH]1`, the IC50 was > 80 µM (inactive).
`Cc1ccccc1OCC(=O)NCC(=O)OCC(=O)c1ccc([N+](=O)[O-])cc1` was tested, and the IC50 was 50.1 µM.
With `Cc1cnc(C=NNC(N)=S)c2cccc(N)c12` the IC50 was > 80 µM (inactive).
For `Cc1nnc(Sc2cc(NCCO)c([N+](=O)[O-])c3nonc23)s1`, the IC50 was 53.1 µM.
For `O=C(O)c1ccc(-n2c(-c3cc(-c4ccco4)[nH]n3)n[nH]c2=S)cc1`, the IC50 was > 80 µM (inactive).
In the case of `C=CCOc1c(Cl)cc(CNc2ccc(N(C)C)cc2)cc1OC`, the IC50 is reported as > 80 µM (inactive).
`COc1cc(NCc2ccccc2)c2ncn(C(C)C)c2c1` was tested, and the IC50 was > 80 µM (inactive).
With `CC(=O)Nc1ccc2sn(-c3ccccc3)c(=O)c2c1` the IC50 was 18.2 µM.
`Cc1ccc2nc(SCC(=O)NC3CCCc4ccccc43)[nH]c2c1` (stereo not drawn) was tested, and the IC50 was > 80 µM (inactive).
For `CC(C)c1nnc(NC(=O)c2cccc(-n3cnnn3)c2)s1`, the IC50 was > 80 µM (inactive).
In the case of `CCn1c([N+](=O)[O-])nc2c1c(=O)[nH]c(=O)n2C`, the IC50 is reported as > 80 µM (inactive).
With `Cc1cc(NC(=O)c2oc3ccccc3c2C)ccc1-n1cnnn1` the IC50 was > 80 µM (inactive).
For `CCC(CO)[n+]1c(C)cc(/C=C2\Sc3ccccc3N2Cc2ccccc2)cc1C` (stereo not drawn), the IC50 was > 80 µM (inactive).
In the case of `CCOc1ccccc1NC(=O)CCCc1nc2ccccc2c(=O)[nH]1`, the IC50 is reported as > 80 µM (inactive).
For `O=C(Nc1ccc(N2CCN(C(=O)c3ccco3)CC2)c(Cl)c1)c1cc2ccccc2o1`, the IC50 was > 80 µM (inactive).
In the case of `COc1cccc(CNc2ccc3[nH]c(=O)[nH]c3c2)c1OCc1ccc(F)cc1`, the IC50 is reported as > 80 µM (inactive).
With `[O-]/[N+](=C\c1ccccc1)c1ccc(Br)cc1` the IC50 was 66 µM.
With `O=C(CNc1ccc2c(c1)OCO2)N/N=C\c1cn(Cc2ccccc2)c2ccccc12` the IC50 was > 80 µM (inactive).
`OCCN1CCN(C(=S)c2ccc(-c3ccccc3)cc2)CC1` was tested, and the IC50 was > 80 µM (inactive).
For `COc1ccc(C(=O)Nc2sc3c(c2C(=O)O)CC(C)(C)OC3)cc1`, the IC50 was > 80 µM (inactive).
Molecule `O=C(Cn1sc2ccccc2c1=O)Nc1ccc(Br)cc1` has an IC50 of 22.4 µM.
For `COc1cc(N=c2ssnc2Cl)c(OC)cc1Cl`, the IC50 was 29.2 µM.
`CN(C)Cc1cc(O)c(CN(C)C)cc1O` was tested, and the IC50 was > 80 µM (inactive).
For `COc1cccc(/C=N/NC(=O)c2c(C)nc3ccc(Br)cn23)c1`, the IC50 was > 80 µM (inactive).
For `COc1cc(CNc2ccc3[nH]c(=O)[nH]c3c2)ccc1OCc1ccccc1`, the IC50 was > 80 µM (inactive).
In the case of `CCC(C)N(CCNC(=O)c1ccc2c(c1)NC(=O)c1ccccc1S2)C1CCCCC1` (stereo not drawn), the IC50 is reported as 6.49 µM.
`CN(C)S(=O)(=O)c1cccc(-n2sc3ccccc3c2=O)c1` showed an IC50 of 13.5 µM.
In the case of `CCCCCCCCSC1=CC(=O)C(OC)=C(OC)C1=O`, the IC50 is reported as > 80 µM (inactive).
For `CC(C)(C)c1ccc(C(=O)Nc2sc3c(c2C(=O)O)CCC3)cc1`, the IC50 was > 80 µM (inactive).
For `COc1ccc(OCc2nnc3n2N=C(c2ccccc2)C(CC(=O)O)S3)cc1` (stereo not drawn), the IC50 was > 80 µM (inactive).
`Cc1ccc(NC(=O)c2cc(C)n(-c3ccccc3)c2C)cc1` was tested, and the IC50 was > 80 µM (inactive).
For `NNC(=O)CN1C(c2ccccc2Br)=Nc2ccc(Br)cc2C1c1ccccc1` (stereo not drawn), the IC50 was > 80 µM (inactive).
In the case of `CC(=O)OCC1(C)CN(c2ccccc2)NC1=O` (stereo not drawn), the IC50 is reported as > 80 µM (inactive).
For `COc1ccc(N2CSC3=C(C#N)C(c4cc(OC)c(OC)cc4OC)CC(=O)N3C2)c(OC)c1` (stereo not drawn), the IC50 was > 80 µM (inactive).
In the case of `Cc1ccc(NC2=C(NC(=O)c3ccccc3)C(=O)c3ccccc3C2=O)cc1Cl`, the IC50 is reported as > 80 µM (inactive).
`Oc1ccc(C23CC4CC(CC(C4)C2)C3)cc1O` showed an IC50 of 52 µM.
For `Nn1c(SCC(=O)Nc2cccnc2Cl)nnc1-c1ccccc1`, the IC50 was > 80 µM (inactive).
`Cc1ccc(NC(=O)Cn2sc3nc(C)cc(C)c3c2=O)c(Cl)c1` was tested, and the IC50 was > 80 µM (inactive).
`Fc1cccc(Cl)c1CNc1ccc(N2CCCC2)cc1` was tested, and the IC50 was > 80 µM (inactive).
For `CC1CCc2c(nc3sc4c(c3c2N)CCCC4)C1` (stereo not drawn), the IC50 was > 80 µM (inactive).
`CC(C)c1cc2c(c(O)c1O)[C@@]13CCCC(C)(C)C1CC2OC3=O` (stereo partly drawn) was tested, and the IC50 was > 80 µM (inactive).
`O=C(CNC(=O)c1ccccc1)NCC(=O)OCC(=O)c1ccc([N+](=O)[O-])cc1` was tested, and the IC50 was 59.6 µM.
With `CC(C)(C)NC(=O)COc1ccc(CNc2ccc3[nH]c(=O)[nH]c3c2)cc1` the IC50 was > 80 µM (inactive).
For `CCCCC1C(=O)N(c2ccccc2)N(c2ccc(O)cc2)C1=O` (stereo not drawn), the IC50 was > 80 µM (inactive).
With `CCOC(=O)c1c(C)n(-c2ccc(C)cc2)c2c(C(C(C)=O)C(=O)O)c(Br)c(O)c(O)c12` (stereo not drawn) the IC50 was > 80 µM (inactive).
For `COC(=O)[C@H](CCSC)NC(=O)c1cc2c(cn1)[nH]c1ccccc12`, the IC50 was > 80 µM (inactive).
`c1nc(SSc2ncnc3nc[nH]c23)c2[nH]cnc2n1` gave an IC50 of 28.7 µM.
In the case of `COC(=O)c1ccccc1NC1=C/C(=N\S(=O)(=O)c2cccs2)c2ccccc2C1=O`, the IC50 is reported as > 80 µM (inactive).
In the case of `CCN(CC)C(=S)SSC(=S)N(CC)CC`, the IC50 is reported as > 80 µM (inactive).
In the case of `CN(C)c1ccc2nc3ccc(=O)cc-3sc2c1`, the IC50 is reported as > 80 µM (inactive).
Work on `Cc1ccc(S(=O)(=O)NNc2ccccc2)cc1` yielded an IC50 of 37.9 µM.
In the case of `O=C(Cn1sc2ccccc2c1=O)Nc1ccc(F)cc1`, the IC50 is reported as 21.9 µM.
For `C=CCc1ccccc1OCC(=O)N/N=C/c1ccccc1OCC`, the IC50 was > 80 µM (inactive).
`Cc1[nH]c(=S)c(C#N)c(C)c1CCC#N` was tested, and the IC50 was > 80 µM (inactive).
In the case of `Cc1ccc(S(=O)(=O)N(C)C)cc1NC(=O)CSc1nc2ncc(Cl)cc2[nH]1`, the IC50 is reported as > 80 µM (inactive).
With `CC(=O)c1cccc(NC(=O)c2cnn(-c3ccccc3)c2C)c1` the IC50 was > 80 µM (inactive).
In the case of `CN(C)c1ccc(Cc2cc3c(O)ccc(O)c3cc(Cc3ccc(N(C)C)cc3)c2=O)cc1`, the IC50 is reported as > 80 µM (inactive).
In the case of `O=c1c2ccccc2sn1-c1cc(S(=O)(=O)N2CCOCC2)ccc1N1CCCC1`, the IC50 is reported as 15.1 µM.
With `Cc1cc(O)c(C(C)C)cc1N=Cc1ccc(N(C)C)cc1` the IC50 was > 80 µM (inactive).
`O=[N+]([O-])c1ccc2c(c1)-c1ccccc1C2O` (stereo not drawn) showed an IC50 of 23.8 µM.
With `CN(C)c1ccc(C=c2c3cc([N+](=O)[O-])ccc3n3c2cc(-c2ccccc2)[n+]3C)cc1` the IC50 was 33.2 µM.
In the case of `CC(C)Cn1c([N+](=O)[O-])nc2c1c(=O)[nH]c(=O)n2C`, the IC50 is reported as > 80 µM (inactive).
`COc1ccc(OC)c2c1C(=O)C(Cl)=C(Cl)C2=O` showed an IC50 of 23.3 µM.
In the case of `C=CCSc1nnc(NC(=O)c2ccc(Cl)nc2)s1`, the IC50 is reported as > 80 µM (inactive).
`O=S(c1ccccc1O)S(=O)c1ccccc1O` (stereo not drawn) was tested, and the IC50 was > 80 µM (inactive).
With `Cc1cc(SCC(=O)N/N=C/c2ccco2)nc2ccccc12` the IC50 was > 80 µM (inactive).
